The results in this text go back to PMC11121495, “Blap-6, a Novel Antifungal Peptide from the Chinese Medicinal Beetle Blaps rhynchopetera against Cryptococcus neoformans” (International Journal of Molecular Sciences, 2024).

Assay [1] deals with E. coli. The experiment in a line: microbe, parasite or virus in culture. Type of assay: cell-based, Escherichia coli (ATCC 8739). From the text:
(§1) These standard strains of Escherichia coli (E. coli, ATCC 8739), Staphylococcus aureus (S. aureus, ATCC 6538), Pseudomonas aeruginosa (P. aeruginosa, ATCC 27853), Acinetobacter baumannii (A. baumannii, ATCC 1968), Candida albicans (ATCC 10231), and the clinical strain of Methicillin-resistant Staphylococcus aureus (MRSA, MRSA-Z) were obtained from Kunming Medical University. The standard strain of C. neoformans (ATCC 32045) was purchased from Shanghai Yingxin Laboratory Co., Ltd. (CAS NO. YXJ50058). Different strains of E. coli, S. aureus, MRSA, P. aeruginosa, and A. baumannii were cultured with shaking at 37 °C in Luria–Bertani (LB) medium. C. neoformans was cultured at 35 °C in Sabouraud Dextrose Agar (SDA) medium according to the manufacturer’s instructions.
(§2) According to Clinical and Laboratory Standards Institute (CLSI) protocols, the minimum inhibitory concentration (MIC) is the minimum drug concentration at which antibiotics inhibit the growth and reproduction of strains. The different strains were grown in their corresponding media at 35 °C or 37 °C until they entered the exponential growth phase. Fluconazole and amphotericin B were used as positive controls, and sterile 0.9% NaCl was used as a negative control. The peptides were diluted to various concentrations in sterile saline. According to 1 OD = 1 × 10^9 CFU/mL, the above bacterial solution was diluted to 2 × 10^5 CFU/mL with the corresponding medium. In advance, 100 μL of normal saline was added to a sterile 96-well plate, and 200 μL of the sample to be tested was added to the first well. The sample to be tested was subjected to double gradient dilution, and then 100 μL of bacterial solution with a concentration of 2 × 10^5 was added to each well. It was cultured at 35 °C or 37 °C for different times. The light absorption value of the bacterial solution at 600 nm was detected by a microplate reader (Epoch Etock, Biotek, Winooski, VT, USA), and the average concentration of the samples in the pores and adjacent pores that could not detect microbial growth was used as the MIC value.

In assay [2] the test system is S. aureus. Put plainly: microbe, parasite or virus in culture. It counts as cell-based, Staphylococcus aureus (ATCC 6538).
Description: as §1, §2

The subject of assay [3] is C. neoformans. The experiment in a line: microbe, parasite or virus in culture. It counts as cell-based, Cryptococcus neoformans (ATCC 32045).
Description: as §1, §2

The subject of assay [4] is C. neoformans ATCC 32045. Put plainly: Fungal-killing kinetics. Type of assay: cell-based, Cryptococcus neoformans. The following applies: 10 × MIC; 1 × 10^6 CFU/mL, SDB, 37 °C, colony count. Here is the method:
The single colony of C. neoformans ATCC 32045 was selected and cultured at 180 rpm and 37 °C, washed three times with normal saline, and then resuspended, and the fungal solution was diluted to 1 × 10^6 CFU/mL with SDB medium. The positive control was fluconazole, and the negative control was normal saline. […] The fungal liquid after adding the sample was quickly put into the 37 °C constant temperature incubator, and the shaking culture was carried out at 180 rpm. […] The plate was placed in a constant temperature incubator for inverted culture for 72 h at 37 °C, and then the single colony on the plate was counted.

The subject of assay [5] is C. neoformans ATCC 32045 cell membrane. The experiment in a line: Membrane potential, DiSC3(5) staining. It counts as cell-based, Cryptococcus neoformans. The conditions noted are these: 1 × MIC, 8 × MIC and 16 × MIC; DiSC3(5) 0.5 μM, ex/em 622/670 nm. As to the method: DiSC3(5) is a fluorescent probe often used as a tracer dye to assess the cell membrane potential. […] C. neoformans ATCC 32045 was selected for SDB medium and cultured in a constant-temperature shaker at 35 °C to the logarithmic phase. The supernatant was removed by centrifugation at 3500 rpm for 5 min, washed three times with normal saline, and then the fungal solution was diluted with normal saline containing 100 mM potassium chloride to an OD600 of about 0.1. […] The above-mixed suspension was added to a fluorescence-specific 96-well plate, 190 μL per well, and the excitation/emission wavelength was set at 622/670 nm, and a microplate reader was used for measurement. The measurement was performed until the microplate reader value was stable and then continued for 20 min. The experimental group was added with 10 μL blap-6 to make the final concentrations 16 × MIC, 8 × MIC, and 1 × MIC, respectively. The positive control group was added with 10 μL of valinomycin to a final concentration of 10 μM. The negative control was added to 10 μL of normal saline. Continue to measure for 60 min. Three replicates were set up in the experiment.

In assay [6] the test system is C. neoformans ATCC 32045. Put plainly: Reactive oxygen species detection, H2DCFDA. The following applies: 1 × MIC, 8 × MIC, 32 × MIC, 30 min, 35 °C; H2DCFDA 10 μM, 488/525 nm. It counts as cell-based, Cryptococcus neoformans. Here is the method:
2′,7′-Dichlorofluorescin diacetate (H2DCFDA) is a cell-permeable probe for detecting intracellular ROS [77]. […] The different concentrations of blap-6 (1 × MIC, 8 × MIC, and 32 × MIC) were incubated with the diluted fungal solution at 35 °C for 30 min, and 0.1 mM H2O2 was used as a positive control. The negative control group was treated with normal saline and incubated at 37 °C for 30 min. Centrifuged at 8000 rpm and 4 °C for 5 min, discard the supernatant, leaving the cell precipitate. The H2DCFDA dye (Boer, Shanghai, China) was dissolved in DMSO and diluted with normal saline containing 1% DMSO to a final concentration of 10 μM. And added 1 mL of H2DCFDA (10 μM) working solution to each tube and incubated at 35 °C for 30 min. And then precipitated the pellets, discarded the supernatant, and paid attention not to suck out the fungi. […] The excitation/wavelength emission was set at 488/525 nm, and three replicates were set in the experiment.

Where no end group is shown, it is not given here.

Consider KRCRFRIYRWGFPRRRF [blap-6], for which the MIC is on record as 9.77 µM in assay [1], 9.77 µM in assay [2] and 0.81 µM in assay [3]. Further, the “time within which all the fungi were killed” value in assay [4] is on record as at most 30 min. Further, the “change of membrane potential” value in assay [5] is “deviations toward cell hyperpolarization in a dose-dependent manner”. In addition, the “production of reactive oxygen species (ROS)” value in assay [6] is on record as “concentration-dependent increase”.
